Data set [1] concerns organisms associated with periodontal disease. As to conditions: cited from earlier work.
The conditions of data set [2]: dog, in vivo.
Method: Therefore, a study to evaluate four different minocycline periodontal formulations relative to determining minocycline levels in crevicular fluid was conducted in a dog model. The study utilized beagle dogs with surgically created "chronic" intrabony periodontal defects. This model entails the extraction of the two lower fourth premolars and the induction of surgically created intrabony defects at the mesial surface of the first molars and distal surface of the third premolars.
In sequence, the defects were created as follows: First, the lower fourth premolars were extracted, sockets were allowed to heal for one month, and dogs received a full mouth scaling and tooth cleaning. […] Dogs were monitored for an additional four weeks.
For evaluation of crevicular levels of minocycline, dogs were placed under general anesthesia, and the various formulations were administered into the periodontal pockets associated with the created defects. […] The strip was then removed, and the relative amount of fluid was determined by a Periotron 6000 instrument. […]
Strips were assayed for minocycline by a microbiological technique that involves use of the minocycline-susceptible bacterium, Bacillus cereus. […] Zones of inhibited bacterial growth were plotted, and the quantity of minocycline present was determined by comparison with zones obtained with minocycline solutions of known concentration. […]

Molecules are shown by their SMILES.

Results on 1 compound are retold here after patent US5366733A, “Method for the treatment of periodontal disease by sustained delivery of a therapeutic agent to the periodontal pocket, and composition of matter therefor” (priority 1991, dated 1994).

`CN(C)c1ccc(O)c2c1C[C@H]1C[C@H]3[C@H](N(C)C)C(O)=C(C(N)=O)C(=O)[C@@]3(O)C(O)=C1C2=O` [minocycline, 7-dimethylamino-6-deoxy-6-demethyltetracycline]: the “MIC's for organisms associated with periodontal disease” value in data set [1] is 0.05 to 1.56 µg/mL. In addition, the “Periods for which minimum inhibitory concentrations (MIC's) can be achieved” value in data set [2] is on record as “up to two”.
